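Results reflect a 48-hour exposure of cells in 96-well plates to compound at five concentrations. TGI denotes the concentration required for complete inhibition of growth.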
Columns and labels:
Test in all cases: NCI anticancer screen, dose series, 48 h
HCT-15 colon = system: HCT-15 colon
HOP-62 NSCLC = system: HOP-62 NSCLC
U251 CNS = system: U251 CNS
HL-60(TB) leukemia = system: HL-60(TB) leukemia
SK-OV-3 ovarian = system: SK-OV-3 ovarian
MOLT-4 leukemia = system: MOLT-4 leukemia
SK-MEL-2 melanoma = system: SK-MEL-2 melanoma
SNB-19 CNS = system: SNB-19 CNS

| Structure (SMILES) | TGI (HCT-15 colon) [µM] | TGI (HOP-62 NSCLC) [µM] | TGI (U251 CNS) [µM] | TGI (HL-60(TB) leukemia) [µM] | TGI (SK-OV-3 ovarian) [µM] | TGI (MOLT-4 leukemia) [µM] | TGI (SK-MEL-2 melanoma) [µM] | TGI (SNB-19 CNS) [µM] |
| --- | --- | --- | --- | --- | --- | --- | --- | --- |
| Oc1ccc(C[C@@H]2CN[C@H](Cc3ccc(O)c(Br)c3)CN2)cc1 | > 100 | > 100 | > 100 | > 100 | > 100 | > 100 | > 100 | – |
| O=C(O[C@@H](/C=C/c1ccccc1)P1(=O)N(Cc2ccccc2)[C@@H]2CCCC[C@H]2N1Cc1ccccc1)c1ccccc1 | > 100 | > 100 | > 100 | > 100 | > 100 | – | 5.42 | > 100 |
| N#Cc1ccnc(C(=O)N2CCCC2C(=O)O)c1 (centres undefined) | > 100 | > 100 | > 100 | > 100 | – | > 100 | > 100 | > 100 |
| CSc1ncnc2c1cnn2Cc1cn(COCC(O)CO)nn1 (centres undefined) | > 100 | > 100 | > 100 | > 100 | > 100 | > 100 | > 100 | > 100 |
| CN1C2CCC1C(CO)C(=O)C2 (centres undefined) | 75.3 | > 100 | > 100 | 26.2 | > 100 | 59.5 | > 100 | – |
| CCOC(=O)C(NC(=O)CC)(Nc1ccccc1F)C(F)(F)F (centres undefined) | > 100 | – | > 100 | > 100 | > 100 | > 100 | > 100 | > 100 |
| CCOC(=O)c1c(-c2ccc(OC)cc2)c(C#N)c(=S)n(C2OC(CO)C(O)C(O)C2O)c1C (centres undefined) | > 100 | > 100 | > 100 | > 100 | > 100 | > 100 | > 100 | > 100 |
| C[C@@H](CCO)OC1OC(COC(=O)C(C)(C)C)C(OC(=O)C(C)(C)C)C(OC(=O)C(C)(C)C)C1OC(=O)C(C)(C)C (some centres undefined) | > 100 | > 100 | > 100 | 62.5 | > 100 | > 100 | > 100 | > 100 |
| O=c1[nH]nc(-c2ccc([N+](=O)[O-])cc2)[nH]1 | > 100 | > 100 | > 100 | > 100 | – | > 100 | > 100 | > 100 |
| COC(=O)c1ccc2cc(O)ccc2c1 | > 100 | > 100 | > 100 | – | > 100 | > 100 | > 100 | > 100 |
| CC1=CC(O)CC(C)(C)C1/C=C/C(C)=C/C=C/C(C)=C/C=C/C=C(C)/C=C/C=C(C)/C=C/C1=C(C)CC(O)CC1(C)C (centres undefined) | 34.4 | – | – | > 100 | > 100 | > 100 | 68.8 | > 100 |
| Nn1nnc2ccccc21 | > 100 | > 100 | > 100 | > 100 | > 100 | > 100 | – | > 100 |
| CC(C)(C)[Si](C)(C)OC1CCOC1(O)c1ccccn1 (centres undefined) | > 100 | > 100 | > 100 | > 100 | > 100 | > 100 | > 100 | > 100 |

Source: PubChem BioAssay (NCI)
